Results as given in article PMC5218480 (PLoS ONE, 2017).

Tested on: MV-4-11 cells
Experiment: Gene expression microarray analysis (Affymetrix PrimeView) and GSEA
Type: cell-based, human
Set-up: RFU PODN (11730768_x_at) / Fold change /veh PODN (11730768_x_at) / RFU LINC00158 (11744669_a_at) / Fold change /veh LINC00158 (11744669_a_at) / RFU DUSP10 (11751237_a_at) / Fold change /veh DUSP10 (11751237_a_at) / RFU ID3 (11757404_x_at) / Fold change /veh ID3 (11757404_x_at) / RFU PLEKHG5 (11737974_s_at) / Fold change /veh PLEKHG5 (11737974_s_at) / RFU LRRC4B (11730491_at) / Fold change /veh LRRC4B (11730491_at) / RFU GIMAP4 (11747438_a_at) / Fold change /veh GIMAP4 (11747438_a_at) / RFU KRT8 (11758183_x_at) / Fold change /veh KRT8 (11758183_x_at) / RFU CNN1 (11734310_a_at) / Fold change /veh CNN1 (11734310_a_at) / RFU VPS37D (11726825_at) / Fold change /veh VPS37D (11726825_at) / RFU C10orf10 (11716522_x_at) / Fold change /veh C10orf10 (11716522_x_at) / RFU KIR2DL2 /// KIR2DL4 /// KIR2DL5A /// KIR2DL5B /// KIR2DS1 /// KIR2DS2 /// KIR2DS3 /// KIR2DS4 /// KIR3DL3 /// KIR3DL3 /// KIR3DS1 (11738374_at) / Fold change /veh KIR2DL2 /// KIR2DL4 /// KIR2DL5A /// KIR2DL5B /// KIR2DS1 /// KIR2DS2 /// KIR2DS3 /// KIR2DS4 /// KIR3DL3 /// KIR3DL3 /// KIR3DS1 (11738374_at) / RFU C1QL1 (11718748_at) / Fold change /veh C1QL1 (11718748_at) / RFU TMPRSS4 (11747572_a_at) / Fold change /veh TMPRSS4 (11747572_a_at) / RFU HAMP (11756126_x_at) / Fold change /veh HAMP (11756126_x_at) / RFU RNFT2 (11725882_a_at) / Fold change /veh RNFT2 (11725882_a_at) / RFU NR4A2 (11747474_a_at) / Fold change /veh NR4A2 (11747474_a_at) / RFU ABCC12 (11746883_a_at) / Fold change /veh ABCC12 (11746883_a_at) / RFU TMEM136 (11760407_x_at) / Fold change /veh TMEM136 (11760407_x_at) / RFU CLDN22 /// WWC2 (11732394_at) / Fold change /veh CLDN22 /// WWC2 (11732394_at) / RFU HLA-DPB1 (11760878_x_at) / Fold change /veh HLA-DPB1 (11760878_x_at) / RFU SPINT1 (11716480_a_at) / Fold change /veh SPINT1 (11716480_a_at) / RFU GAP43 (11754022_s_at) / Fold change /veh GAP43 (11754022_s_at) / RFU A4GNT (11735810_at) / Fold change /veh A4GNT (11735810_at) / RFU PRB3 (11715151_x_at) / Fold change /veh PRB3 (11715151_x_at) / RFU TUBB4B (11761932_at) / Fold change /veh TUBB4B (11761932_at) / RFU CAPN14 (11732068_a_at) / Fold change /veh CAPN14 (11732068_a_at) / RFU TMCC2 (11721928_a_at) / Fold change /veh TMCC2 (11721928_a_at) / RFU IRGQ (11745062_a_at) / Fold change /veh IRGQ (11745062_a_at) / RFU FAM174B (11720279_a_at) / Fold change /veh FAM174B (11720279_a_at) / RFU TMPRSS4 (11748680_a_at) / Fold change /veh TMPRSS4 (11748680_a_at) / RFU FAM212B (11763350_a_at) / Fold change /veh FAM212B (11763350_a_at) / RFU PLEKHG5 (11743358_a_at) / Fold change /veh PLEKHG5 (11743358_a_at) / RFU ZSCAN30 (11745921_a_at) / Fold change /veh ZSCAN30 (11745921_a_at) / RFU CMKLR1 (11741424_a_at) / Fold change /veh CMKLR1 (11741424_a_at) / RFU LOC101060620 /// MAPK8IP1 (11723275_at) / Fold change /veh LOC101060620 /// MAPK8IP1 (11723275_at) / RFU SPTSSB (11747773_x_at) / Fold change /veh SPTSSB (11747773_x_at) / RFU PRSS12 (11739890_at) / Fold change /veh PRSS12 (11739890_at) / RFU BIN1 (11741810_x_at) / Fold change /veh BIN1 (11741810_x_at) / RFU WNT11 (11732464_a_at) / Fold change /veh WNT11 (11732464_a_at) / RFU C10orf10 (11716521_a_at) / Fold change /veh C10orf10 (11716521_a_at) / RFU C5orf56 (11738089_at) / Fold change /veh C5orf56 (11738089_at) / RFU CYB561 (11721691_x_at) / Fold change /veh CYB561 (11721691_x_at) / RFU ANKRD19P (11752326_a_at) / Fold change /veh ANKRD19P (11752326_a_at) / RFU OR2T12 /// OR2T33 /// OR2T8 (11738714_s_at) / Fold change /veh OR2T12 /// OR2T33 /// OR2T8 (11738714_s_at) / RFU VCAN (11748164_a_at) / Fold change /veh VCAN (11748164_a_at) / RFU JSRP1 (11732532_at) / Fold change /veh JSRP1 (11732532_at) / RFU KRTAP10-11 (11738290_x_at) / Fold change /veh KRTAP10-11 (11738290_x_at) / RFU MYO3A (11730013_a_at) / Fold change /veh MYO3A (11730013_a_at) / RFU EBF3 (11725865_a_at) / Fold change /veh EBF3 (11725865_a_at) / RFU CAMK2N1 (11719241_x_at) / Fold change /veh CAMK2N1 (11719241_x_at) / RFU C5orf56 (11738088_a_at) / Fold change /veh C5orf56 (11738088_a_at) / RFU OLFML3 (11715873_a_at) / Fold change /veh OLFML3 (11715873_a_at) / RFU LOC100653217 /// NTM (11731650_a_at) / Fold change /veh LOC100653217 /// NTM (11731650_a_at) / RFU MAPK11 (11762145_a_at) / Fold change /veh MAPK11 (11762145_a_at) / RFU FIZ1 (11724087_x_at) / Fold change /veh FIZ1 (11724087_x_at) / RFU OASL (11726364_x_at) / Fold change /veh OASL (11726364_x_at) / RFU SOX15 (11748057_x_at) / Fold change /veh SOX15 (11748057_x_at) / RFU CD79A (11719716_a_at) / Fold change /veh CD79A (11719716_a_at) / RFU HIST1H1D (11736915_at) / Fold change /veh HIST1H1D (11736915_at) / RFU CASKIN2 (11723855_a_at) / Fold change /veh CASKIN2 (11723855_a_at) / RFU LOC730098 (11760151_x_at) / Fold change /veh LOC730098 (11760151_x_at) / RFU OR4N2 (11742367_at) / Fold change /veh OR4N2 (11742367_at) / RFU PRRT2 (11749266_a_at) / Fold change /veh PRRT2 (11749266_a_at) / RFU SNX32 (11753110_a_at) / Fold change /veh SNX32 (11753110_a_at) / RFU CDHR5 (11726645_a_at) / Fold change /veh CDHR5 (11726645_a_at) / RFU RCAN1 (11760418_a_at) / Fold change /veh RCAN1 (11760418_a_at) / RFU FAM167A (11723789_a_at) / Fold change /veh FAM167A (11723789_a_at) / RFU FAM26E (11764081_at) / Fold change /veh FAM26E (11764081_at) / RFU ISYNA1 (11749810_s_at) / Fold change /veh ISYNA1 (11749810_s_at) / RFU ACY1 (11761880_at) / Fold change /veh ACY1 (11761880_at) / RFU 11764098_at / Fold change /veh 11764098_at / RFU SAMD14 (11745864_x_at) / Fold change /veh SAMD14 (11745864_x_at) / RFU NPB (11741838_a_at) / Fold change /veh NPB (11741838_a_at) / RFU TMPRSS6 (11731388_a_at) / Fold change /veh TMPRSS6 (11731388_a_at) / RFU KRTAP10-2 (11738614_at) / Fold change /veh KRTAP10-2 (11738614_at) / RFU ARHGAP8 /// PRR5-ARHGAP8 (11727945_x_at) / Fold change /veh ARHGAP8 /// PRR5-ARHGAP8 (11727945_x_at) / RFU KRTAP5-7 /// NADSYN1 (11734609_at) / Fold change /veh KRTAP5-7 /// NADSYN1 (11734609_at) / RFU RASL12 (11751679_a_at) / Fold change /veh RASL12 (11751679_a_at) / RFU CDKN2B (11736163_a_at) / Fold change /veh CDKN2B (11736163_a_at) / RFU PRF1 (11729649_at) / Fold change /veh PRF1 (11729649_at) / RFU, ZNF638 /// ZNF638-IT1 / Fold change vs veh, ZNF638 /// ZNF638-IT1 / RFU, PANK3 / Fold change vs veh, PANK3 / RFU, SH3YL1 / Fold change vs veh, SH3YL1 / RFU, ZEB2 / Fold change vs veh, ZEB2 / RFU, NRIP1 / Fold change vs veh, NRIP1 / RFU, PTTG1IP / Fold change vs veh, PTTG1IP / RFU, CAPN2 / Fold change vs veh, CAPN2 / RFU, MED14 / Fold change vs veh, MED14 / RFU, SNORA58 / Fold change vs veh, SNORA58 / RFU, C1orf63 / Fold change vs veh, C1orf63 / RFU, LRRFIP1 / Fold change vs veh, LRRFIP1 / RFU, NDUFAF7 / Fold change vs veh, NDUFAF7 / RFU, SLC12A2 / Fold change vs veh, SLC12A2 / RFU, IBTK / Fold change vs veh, IBTK / RFU, ESF1 / Fold change vs veh, ESF1 / Fold change vs veh, TMEM50B / RFU, TAOK1 / Fold change vs veh, TAOK1 / RFU, ACBD3 / Fold change vs veh, ACBD3 / RFU, TMA16 / Fold change vs veh, TMA16 / RFU, RWDD3 / Fold change vs veh, RWDD3 / RFU, BCAT1 / Fold change vs veh, BCAT1 / RFU, EDEM3 / Fold change vs veh, EDEM3 / RFU, TMEM33 / Fold change vs veh, TMEM33 / RFU, WDR75 / Fold change vs veh, WDR75 / RFU, AHCTF1 / Fold change vs veh, AHCTF1 / RFU, TFRC / Fold change vs veh, TFRC / RFU, ZDHHC17 / Fold change vs veh, ZDHHC17 / RFU, NOM1 / Fold change vs veh, NOM1 / RFU, ARL8B / Fold change vs veh, ARL8B / RFU, ZBTB11 / Fold change vs veh, ZBTB11 / RFU, TAMM41 / Fold change vs veh, TAMM41 / RFU, KIAA1704 /// LOC100996395 / Fold change vs veh, KIAA1704 /// LOC100996395 / RFU, ING1 / Fold change vs veh, ING1 / RFU, TRMT61B / Fold change vs veh, TRMT61B / RFU, FUBP3 / Fold change vs veh, FUBP3 / RFU, TP53 / Fold change vs veh, TP53 / RFU, TNKS2 / Fold change vs veh, TNKS2 / RFU, ZFP14 / Fold change vs veh, ZFP14 / RFU, ACTR2 / Fold change vs veh, ACTR2 / RFU, PPP3R1 / Fold change vs veh, PPP3R1 / RFU, PIK3R1 / Fold change vs veh, PIK3R1 / RFU, HNRNPA1 / Fold change vs veh, HNRNPA1 / RFU, RNF170 / Fold change vs veh, RNF170 / RFU, ZNF28 / Fold change vs veh, ZNF28 / RFU, RNGTT / Fold change vs veh, RNGTT / RFU, OGT / Fold change vs veh, OGT / RFU, BRD1 / Fold change vs veh, BRD1 / RFU, MARS / Fold change vs veh, MARS / RFU, ZNF655 / Fold change vs veh, ZNF655 / RFU, FAHD1 / Fold change vs veh, FAHD1 / RFU, BDP1 / Fold change vs veh, BDP1 / RFU, LRRCC1 / Fold change vs veh, LRRCC1 / RFU, ARID1A / Fold change vs veh, ARID1A / RFU, ZNF146 / Fold change vs veh, ZNF146 / RFU, ZNF330 / Fold change vs veh, ZNF330 / RFU, GPN3 / Fold change vs veh, GPN3 / RFU, C9orf123 / Fold change vs veh, C9orf123 / RFU, N4BP2L2 / Fold change vs veh, N4BP2L2 / RFU, ARFIP1 / Fold change vs veh, ARFIP1 / RFU, FAM179B / Fold change vs veh, FAM179B / RFU, BCL10 / Fold change vs veh, BCL10 / RFU, UHRF1BP1L / Fold change vs veh, UHRF1BP1L / RFU, BET1 / Fold change vs veh, BET1 / RFU, CNOT2 / Fold change vs veh, CNOT2 / RFU, ZNF268 / Fold change vs veh, ZNF268 / Fold change vs veh, ZNF507 / RFU, DGCR2 / Fold change vs veh, DGCR2 / RFU, WDSUB1 / Fold change vs veh, WDSUB1 / Fold change vs veh, HSP90B1 /// MIR3652 / RFU, ADSS / Fold change vs veh, ADSS / RFU, GK / Fold change vs veh, GK / RFU, ZNF148 / Fold change vs veh, ZNF148 / RFU, TAF9 / Fold change vs veh, TAF9 / RFU, SLC1A5 / Fold change vs veh, SLC1A5 / RFU, SLMO2 / Fold change vs veh, SLMO2 / RFU, ABCC4 / Fold change vs veh, ABCC4 / RFU, LOC101060439 /// RAP1B / Fold change vs veh, LOC101060439 /// RAP1B / RFU, RFX7 / Fold change vs veh, RFX7 / RFU, GTPBP10 / Fold change vs veh, GTPBP10 / RFU, CNEP1R1 / Fold change vs veh, CNEP1R1 / RFU, BIVM-ERCC5 /// ERCC5 / Fold change vs veh, BIVM-ERCC5 /// ERCC5 / RFU, ILF3 / Fold change vs veh, ILF3 / RFU 11762660_at / Fold change /veh 11762660_at / RFU VCAN (11757783_s_at) / Fold change /veh VCAN (11757783_s_at) / RFU DDX43 (11728927_at) / Fold change /veh DDX43 (11728927_at) / RFU KRT8 (11758188_x_at) / Fold change /veh KRT8 (11758188_x_at) / RFU NKD1 (11759106_at) / Fold change /veh NKD1 (11759106_at) / RFU SRD5A1 (11742802_a_at) / Fold change /veh SRD5A1 (11742802_a_at) / RFU TPSAB1 /// TPSB2 (11721975_s_at) / Fold change /veh TPSAB1 /// TPSB2 (11721975_s_at) / RFU GSTM3 (11746129_a_at) / Fold change /veh GSTM3 (11746129_a_at) / RFU IL23R (11737362_x_at) / Fold change /veh IL23R (11737362_x_at) / RFU TMEM51 (11727254_a_at) / Fold change /veh TMEM51 (11727254_a_at) / RFU PIWIL2 (11732686_x_at) / Fold change /veh PIWIL2 (11732686_x_at) / RFU ORM1 (11744905_x_at) / Fold change /veh ORM1 (11744905_x_at) / RFU CCDC152 (11743942_at) / Fold change /veh CCDC152 (11743942_at) / RFU ECM1 (11717891_a_at) / Fold change /veh ECM1 (11717891_a_at) / RFU IL23R (11748794_a_at) / Fold change /veh IL23R (11748794_a_at) / RFU TNFAIP8L3 (11732012_x_at) / Fold change /veh TNFAIP8L3 (11732012_x_at) / RFU MBOAT4 (11741988_at) / Fold change /veh MBOAT4 (11741988_at) / RFU 11764193_at / Fold change /veh 11764193_at / RFU TMEM53 (11763286_at) / Fold change /veh TMEM53 (11763286_at) / RFU MAGEB2 (11727129_at) / Fold change /veh MAGEB2 (11727129_at) / RFU TMEM200A (11744735_a_at) / Fold change /veh TMEM200A (11744735_a_at) / RFU CCDC152 (11751479_a_at) / Fold change /veh CCDC152 (11751479_a_at) / RFU FAM211A (11726209_a_at) / Fold change /veh FAM211A (11726209_a_at) / RFU RGS16 (11746705_a_at) / Fold change /veh RGS16 (11746705_a_at) / RFU VCAN (11755009_s_at) / Fold change /veh VCAN (11755009_s_at) / RFU RHOB (11743442_s_at) / Fold change /veh RHOB (11743442_s_at) / RFU RGS16 (11720943_a_at) / Fold change /veh RGS16 (11720943_a_at) / RFU RGS16 (11720944_at) / Fold change /veh RGS16 (11720944_at) / RFU, VPS4B / Fold change vs veh, VPS4B / RFU, CREB1 / Fold change vs veh, CREB1 / RFU, DNAJC13 / Fold change vs veh, DNAJC13 / RFU, GNAQ / Fold change vs veh, GNAQ / RFU, CDK5R1 / Fold change vs veh, CDK5R1 / RFU, ZRANB3 / Fold change vs veh, ZRANB3 / RFU, CUL4A / Fold change vs veh, CUL4A / RFU, CCNY / Fold change vs veh, CCNY / RFU, UFL1 / Fold change vs veh, UFL1 / RFU, COG3 / Fold change vs veh, COG3 / RFU, DIAPH2 / Fold change vs veh, DIAPH2 / RFU, SKA2 / Fold change vs veh, SKA2 / RFU, AFF3 / Fold change vs veh, AFF3 / RFU, LMF1 / Fold change vs veh, LMF1 / RFU, IPO11 / Fold change vs veh, IPO11 / RFU, DFFB / Fold change vs veh, DFFB / RFU, FOXP1 / Fold change vs veh, FOXP1 / RFU, CARD8 / Fold change vs veh, CARD8 / RFU, STRN3 / Fold change vs veh, STRN3 / RFU, ADK / Fold change vs veh, ADK / RFU, RASSF2 / Fold change vs veh, RASSF2 / RFU, WIPF1 / Fold change vs veh, WIPF1 / RFU, LARP1B / Fold change vs veh, LARP1B / RFU, RASA1 / Fold change vs veh, RASA1 / RFU, RB1 / Fold change vs veh, RB1 / RFU, PPFIA1 / Fold change vs veh, PPFIA1 / RFU, MAT2A / Fold change vs veh, MAT2A / RFU, CCT5 / Fold change vs veh, CCT5 / RFU, WDR92 / Fold change vs veh, WDR92 / RFU, CUX1 / Fold change vs veh, CUX1 / RFU, TTC7A / Fold change vs veh, TTC7A / RFU, TMEM135 / Fold change vs veh, TMEM135 / RFU, DEPTOR / Fold change vs veh, DEPTOR / RFU, CPM / Fold change vs veh, CPM / RFU, DNAJB6 / Fold change vs veh, DNAJB6 / RFU, CACNA2D3 / Fold change vs veh, CACNA2D3 / RFU, DTX4 / Fold change vs veh, DTX4 / RFU, TFCP2 / Fold change vs veh, TFCP2 / RFU, GMCL1 /// GMCL1P1 / Fold change vs veh, GMCL1 /// GMCL1P1 / RFU, AEBP2 / Fold change vs veh, AEBP2 / RFU, SNHG1 /// SNORD22 /// SNORD25 /// SNORD26 /// SNORD27 /// SNORD28 /// SNORD29 /// SNORD31 / Fold change vs veh, SNHG1 /// SNORD22 /// SNORD25 /// SNORD26 /// SNORD27 /// SNORD28 /// SNORD29 /// SNORD31 / Fold change (Aza/veh), C12orf56 (ProbeSet 11735607_a_at) / Fold change (ACY-1035/veh), C12orf56 (ProbeSet 11735607_a_at) / Fold change (Aza/veh), FGFR1OP (ProbeSet 11751329_s_at) / Fold change (ACY-1035/veh), FGFR1OP (ProbeSet 11751329_s_at) / Fold change (Aza/veh), VPS36 (ProbeSet 11739960_a_at) / Fold change (ACY-1035/veh), VPS36 (ProbeSet 11739960_a_at) / RFU SYPL1 (11715823_x_at) / Fold change /veh SYPL1 (11715823_x_at) / RFU IGFBP7 (11715501_s_at) / Fold change /veh IGFBP7 (11715501_s_at) / RFU REEP3 (11722064_at) / Fold change /veh REEP3 (11722064_at) / RFU IGLL1 (11728026_x_at) / Fold change /veh IGLL1 (11728026_x_at): dose or concentration left out as unconfirmed
Conditions: ProbeSet 11749551_a_at; LIST B

## Nc1ccc(-c2cccs2)cc1NC(=O)c1ccc2c(c1)cc(C1CC1)n2CCN1CCOCC1 [ACY-1035]
  RFU, RNGTT: 53.54 RFU
